Several values for one entry are separate records, joined by “and”; a condition that tells them apart may be missing. Equal entries are not always repeated. Toxic doses and inconclusive results are not listed.

The experiment has as its system BDF1 mice, P388 leukemia ip, median survival T/C. The experiment in a line: NCI In Vivo Anticancer Drug Screen. Data for tumor model P388 Leukemia (intraperitoneal) in B6D2F1 (BDF1) mice. Particulars: endpoint: median survival time, higher = longer survival. Put shortly:
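Survival ratio, drug arm over vehicle arm, in mice with a transplanted tumour.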

Where [1] appears, read: dose: 50.0 mg/kg/injection, schedule: Q04DX003 (ip), vehicle: Klucel (hydroxypropylcellulose) (HPC).
The mark [2] stands for this setting: dose: 100.0 mg/kg/injection, schedule: Q04DX003 (ip), vehicle: Klucel (hydroxypropylcellulose) (HPC).
Where [3] appears, read: dose: 25.0 mg/kg/injection, schedule: Q01DX009 (ip), vehicle: Klucel (hydroxypropylcellulose) (HPC).
[4] abbreviates: dose: 50.0 mg/kg/injection, schedule: Q01DX009 (ip), vehicle: Klucel (hydroxypropylcellulose) (HPC).
Setting [5] is: dose: 100.0 mg/kg/injection, schedule: Q01DX009 (ip), vehicle: Klucel (hydroxypropylcellulose) (HPC).
The mark [6] stands for this setting: dose: 100.0 mg/kg/injection, schedule: Q04DX003 (ip), vehicle: saline with Tween-80.
The mark [7] stands for this setting: dose: 200.0 mg/kg/injection, schedule: Q04DX003 (ip), vehicle: saline with Tween-80.
Setting [8] is: dose: 400.0 mg/kg/injection, schedule: Q04DX003 (ip), vehicle: saline with Tween-80.
The mark [9] stands for this setting: dose: 100.0 mg/kg/injection, schedule: Q01DX009 (ip), vehicle: saline with Tween-80.
Setting [10] is: dose: 50.0 mg/kg/injection, schedule: Q01DX009 (ip), vehicle: saline with Tween-80.
The mark [11] stands for this setting: dose: 200.0 mg/kg/injection, schedule: Q01DX009 (ip), vehicle: saline with Tween-80.
Setting [12] is: dose: 100.0 mg/kg/injection, schedule: Q01DX009 (ip), vehicle: saline.
The mark [13] stands for this setting: dose: 200.0 mg/kg/injection, schedule: Q01DX009 (ip), vehicle: saline.
The mark [14] stands for this setting: dose: 400.0 mg/kg/injection, schedule: Q01DX009 (ip), vehicle: saline with Tween-80.

As for `C[C@@H]1CC[C@@]2(NC1)O[C@H]1C[C@H]3[C@@H]4CC=C5C[C@@H](O)CC[C@]5(C)[C@H]4CC[C@]3(C)[C@H]1[C@@H]2C`, the T/C under setting [1] was 100 % of control; the T/C (dose: 50.0 mg/kg/injection, schedule: Q04DX003 (ip), vehicle: saline sonified) is 110 % of control; the T/C (dose: 88.0 mg/kg/injection, schedule: Q01DX009 (ip), vehicle: saline with Tween-80) is 86 % of control; the T/C under setting [2] was 109 % of control; the T/C (dose: 100.0 mg/kg/injection, schedule: Q04DX003 (ip), vehicle: saline sonified) was 100 % of control; the T/C (dose: 132.0 mg/kg/injection, schedule: Q01DX009 (ip), vehicle: saline with Tween-80) was 118 % of control. In addition, the T/C reads like this: (dose: 200.0 mg/kg/injection, schedule: Q04DX003 (ip), vehicle: Klucel (hydroxypropylcellulose) (HPC)) 104 % of control; (dose: 200.0 mg/kg/injection, schedule: Q04DX003 (ip), vehicle: saline sonified) 105 % of control; (dose: 300.0 mg/kg/injection, schedule: Q01DX009 (ip), vehicle: saline with Tween-80) 95 % of control.

On to `Cc1c(C(=O)CCl)c(=O)n(-c2ccccc2)n1C`, for which the T/C was 100 % of control under setting [3]; 96 % of control (dose: 25.0 mg/kg/injection, schedule: Q04DX003 (ip), vehicle: Klucel (hydroxypropylcellulose) (HPC)); 104 % of control under setting [4]; 100 % of control under setting [1]; 91 % of control under setting [5]; 100 % of control and 103 % of control under setting [2].

For the compound `O=C(O)C(/C=N\Nc1ccccc1)=N\Nc1ccccc1`, the T/C by setting is: (dose: 37.5 mg/kg/injection, schedule: Q01DX009 (ip), vehicle: saline with Tween-80) 110 % of control; (dose: 75.0 mg/kg/injection, schedule: Q01DX009 (ip), vehicle: saline with Tween-80) 115 % of control; (dose: 150.0 mg/kg/injection, schedule: Q01DX009 (ip), vehicle: saline with Tween-80) 118 % of control.

Regarding `Cc1cc2c(C(C)C)c(O)c(O)c(C=O)c2c(O)c1-c1c(C)cc2c(C(C)C)c(O)c(O)c(C=O)c2c1O`, the T/C (dose: 1.25 mg/kg/injection, schedule: Q01DX009 (ip), vehicle: saline with Tween-80) was 124 % of control and the T/C (dose: 2.5 mg/kg/injection, schedule: Q01DX009 (ip), vehicle: saline with Tween-80) was 120 % of control.

Regarding `O=C(Nc1ccc(F)cc1)c1ccc(C(=O)Nc2ccc(F)cc2)cc1`, the T/C by setting is: under setting [6], 108 % of control; under setting [7], 91 % of control; under setting [8], 91 % of control.

In the case of `CC1([CH2][Hg][I])CS(=O)(=O)CC(C)([CH2][Hg][I])O1` (stereo unspecified), the T/C (dose: 5.0 mg/kg/injection, schedule: Q01DX010 (ip), vehicle: carboxymethylcellulose (CMC)) was 104 % of control and the T/C (dose: 10.0 mg/kg/injection, schedule: Q01DX010 (ip), vehicle: carboxymethylcellulose (CMC)) is 109 % of control.

In the case of `O=S1(=O)C2CCCCC2(N2CCOCC2)C1c1ccccc1` (stereo unspecified), the T/C is 100 % of control (dose: 100.0 mg/kg/injection, schedule: Q04DX003 (ip), vehicle: other); 109 % of control (dose: 178.0 mg/kg/injection, schedule: Q04DX003 (ip), vehicle: other); 104 % of control (dose: 200.0 mg/kg/injection, schedule: Q04DX003 (ip), vehicle: other); 104 % of control (dose: 266.0 mg/kg/injection, schedule: Q04DX003 (ip), vehicle: other); 100 % of control (dose: 400.0 mg/kg/injection, schedule: Q04DX003 (ip), vehicle: other).

`C[n+]1c(-c2cc(Cl)cc(Cl)c2)c2cc([N+](=O)[O-])ccc2c2ccccc21`: the T/C (dose: 50.0 mg/kg/injection, schedule: Q04DX003 (ip), vehicle: water) was 120 % of control; the T/C (dose: 200.0 mg/kg/injection, schedule: Q04DX003 (ip), vehicle: water) was 122 % of control; the T/C (dose: 400.0 mg/kg/injection, schedule: Q04DX003 (ip), vehicle: water) is 110 % of control.

As to `CCN=NNc1ccc(C)cc1`, the T/C is 90 % of control (dose: 8.25 mg/kg/injection, schedule: Q01DX009 (ip), vehicle: saline with Tween-80); 100 % of control (dose: 16.5 mg/kg/injection, schedule: Q01DX009 (ip), vehicle: saline with Tween-80); 100 % of control (dose: 66.0 mg/kg/injection, schedule: Q01DX009 (ip), vehicle: saline with Tween-80); 108 % of control under setting [9].

In the case of `COc1ccc(N=C(c2ccccc2)c2ccc([N+](=O)[O-])cc2)cc1`, the T/C runs as follows: (dose: 12.0 mg/kg/injection, schedule: Q01DX009 (ip), vehicle: Klucel (hydroxypropylcellulose) (HPC)) 100 % of control; under setting [3], 109 % of control; under setting [4], 100 % of control and 122 % of control; under setting [5], 86 % of control; (dose: 200.0 mg/kg/injection, schedule: Q01DX009 (ip), vehicle: Klucel (hydroxypropylcellulose) (HPC)) 90 % of control.

As to `O=S1(=O)C(C(O)(c2ccccc2)c2ccccc2)CCCN1c1ccccc1` (stereo unspecified), the T/C is 100 % of control under setting [10], 91 % of control under setting [9] and 97 % of control under setting [11].

As to `c1cnc2[nH]cnc2n1`, the T/C under setting [12] is 95 % of control; the T/C (dose: 100.0 mg/kg/injection, schedule: Q04DX003 (ip), vehicle: saline) is 100 % of control; the T/C under setting [13] is 95 % of control; the T/C (dose: 200.0 mg/kg/injection, schedule: Q04DX003 (ip), vehicle: saline) was 100 % of control; the T/C (dose: 400.0 mg/kg/injection, schedule: Q04DX003 (ip), vehicle: saline) is 90 % of control.

Regarding `CCCCCCOP(=O)(N1CC1C)N1CC1C` (stereo unspecified), the T/C by setting is: (dose: 50.0 mg/kg/injection, schedule: Q01DX009 (ip), vehicle: saline) 122 % of control; under setting [12], 150 % of control and 182 % of control; under setting [13], 86 % of control.

As to `O=C1NC(c2ccccc2)(c2ccccc2)C(=O)N1SC(Cl)(Cl)Cl`, the T/C is, setting by setting: (dose: 3.12 mg/kg/injection, schedule: Q01DX009 (ip), vehicle: Klucel (hydroxypropylcellulose) (HPC)) 123 % of control; (dose: 6.25 mg/kg/injection, schedule: Q01DX009 (ip), vehicle: Klucel (hydroxypropylcellulose) (HPC)) 120 % of control; (dose: 12.5 mg/kg/injection, schedule: Q01DX009 (ip), vehicle: Klucel (hydroxypropylcellulose) (HPC)) 120 % of control; under setting [3], 117 % of control; under setting [4], 106 % of control.

As for `O=C1c2ccccc2-c2c(Br)c3ccccc3c(=O)n21`, the T/C reads like this: under setting [10], 105 % of control; under setting [9], 105 % of control; under setting [11], 117 % of control; under setting [14], 101 % of control.

With `CCCCS(=O)(=O)OCCCCOS(=O)(=O)CCCC`, the T/C under setting [9] is 113 % of control; the T/C under setting [6] was 104 % of control; the T/C under setting [11] is 118 % of control; the T/C under setting [7] is 109 % of control; the T/C (dose: 264.0 mg/kg/injection, schedule: Q04DX003 (ip), vehicle: saline with Tween-80) is 91 % of control; the T/C under setting [14] was 122 % of control. Also, the T/C was 95 % of control under setting [8] and 104 % of control (dose: 600.0 mg/kg/injection, schedule: Q04DX003 (ip), vehicle: saline with Tween-80).

As for `CCCCCCCCCCCCN(CCC(=O)O)S(=O)(=O)O`, the T/C runs as follows: under setting [3], 95 % of control; under setting [4], 104 % of control; (dose: 75.0 mg/kg/injection, schedule: Q04DX003 (ip), vehicle: Klucel (hydroxypropylcellulose) (HPC)) 100 % of control; under setting [5], 90 % of control; (dose: 150.0 mg/kg/injection, schedule: Q04DX003 (ip), vehicle: Klucel (hydroxypropylcellulose) (HPC)) 100 % of control.

For `Cc1ccnc(NS(=O)(=O)c2ccc(N=Cc3ccc(N(C)C)cc3)cc2)n1`, the T/C is, setting by setting: under setting [10], 90 % of control; under setting [9], 93 % of control; under setting [11], 90 % of control.

`CC1COC(Nc2cccc3c2CCCC3)=N1` (stereo unspecified): the T/C (dose: 12.5 mg/kg/injection, schedule: Q04DX003 (ip), vehicle: saline with Tween-80) was 100 % of control; the T/C (dose: 25.0 mg/kg/injection, schedule: Q04DX003 (ip), vehicle: saline with Tween-80) is 109 % of control; the T/C (dose: 50.0 mg/kg/injection, schedule: Q04DX003 (ip), vehicle: saline with Tween-80) is 109 % of control.

These data come from PubChem BioAssay AID328 (DTP/NCI, 2004).
